Laboratory results: patent US10336735B2, “Small molecule inhibitors of fibrosis” (THE CALIFORNIA INSTITUTE FOR BIOMEDICAL RESEARCH, priority 2014, dated 2019)

Test system: primary human lung fibroblasts and primary rodent HSCs
Experiment: High content imaging assay (α-SMA staining, cell morphology) of fibroblast to myofibroblast transdifferentiation, confirmed by Western blot and RT-PCR
Conditions: Homo sapiens, Fibroblast; imaging and western based activity
Outline: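 Primary human lung fibroblasts and primary rodent HSCs were serum-starved and then TGF-β-treated to drive transdifferentiation in 384-well format, with SB-431542 as positive control. Readouts were α-SMA immunofluorescence and cell morphology by high-content imaging, confirmed by Western blot and RT-PCR in 4-day, 4-point dose-response assays; EC50 values are graded.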

Compound	EC50 [nM]
CC[C@H](C)n1ncn(-c2ccc(N3CCN(c4ccc(OC[C@H]5CO[C@@](Cn6nccn6)(c6ccccc6)O5)cc4)CC3)cc2)c1=O [Compound 185]	< 500
O=c1n(-c2ccc(N3CCN(c4ccc(OC[C@@H]5CO[C@@](Cn6nccn6)(c6ccccc6)O5)cc4F)CC3)cc2)cnn1CC1CCCC1 [Compound 157]	< 500
CCC(C)n1ncn(-c2ccc(N3CCN(c4ccc(OC[C@@H]5CO[C@](Cc6ccnnc6)(c6ccc(Cl)c(Cl)c6)O5)cc4)CC3)cc2)c1=O (some centres unmarked) [Compound 106]	< 500
CCC(CC)n1ncn(-c2ccc(N3CCN(c4ccc(OC[C@@H]5CO[C@@](Cn6nccn6)(c6ccccc6)O5)cc4)CC3)cc2)c1=O [Compound 161]	< 500
CCC(C)n1ncn(-c2ccc(N3CCN(c4ccc(OC[C@@H]5CO[C@@](Cn6nccn6)(c6ccccc6)O5)cc4C#N)CC3)cc2)c1=O (some centres unmarked) [Compound 66]	< 500
CCC(C)n1ncn(-c2ccc(N3CCN(c4ccc(OC[C@H]5CO[C@](Cn6nccn6)(c6ccccc6)C5)cc4C#N)CC3)cc2)c1=O (some centres unmarked) [Compound 149]	> 30000
CCC(C)n1ncn(-c2ccc(N3CCN(c4ccc(OC[C@@H]5CO[C@@](Cn6nccn6)(c6ccccc6)O5)c(C(F)(F)F)c4)CC3)cc2)c1=O (some centres unmarked) [Compound 59]	5000 to 30000
O=c1n(-c2ccc(N3CCN(c4ccc(OC[C@@H]5CO[C@@](Cn6nccn6)(c6ccccc6)O5)cc4)CC3)cc2)cnn1CC1CCNCC1 [Compound 15]	5000 to 30000
CCC(C)n1ncn(-c2ccc(N3CCN(c4ccc(OC[C@@H]5CO[C@@](Cn6nccn6)(c6ccccc6)O5)cc4)CC3)cc2)c1=O (some centres unmarked) [Compound 178]	< 500
CCC(C)n1ncn(-c2ccc(N3CCN(c4ccc(OC[C@@H]5CO[C@@](Cc6ccnnc6)(c6ccc(C#N)cc6)O5)cc4)CC3)cc2)c1=O (some centres unmarked) [Compound 131]	> 30000
CCC(C)n1ncn(-c2ccc(N3CCN(c4ccc(OC[C@@H]5CO[C@@](Cn6cccn6)(c6ccccc6C(F)(F)F)O5)cc4)CC3)cc2)c1=O (some centres unmarked) [Compound 91]	< 500
CC1(CCn2ncn(-c3ccc(N4CCN(c5ccc(OC[C@@H]6CO[C@@](Cn7cncn7)(c7ccc(Br)cc7)O6)cc5)CC4)cc3)c2=O)N=N1 [Compound 151]	500 to 5000
CCC(C)n1ncn(-c2ccc(N3CCN(c4ccc(OC[C@@H]5CO[C@](Cc6ccnnc6)(c6ccc(OC)cc6)O5)cc4)CC3)cc2)c1=O (some centres unmarked) [Compound 109]	500 to 5000
CCC(C)n1ncn(-c2ccc(N3CCN(c4ccc(OC[C@H]5CO[C@@](Cn6nccn6)(c6ccccc6)O5)cc4)CC3)cc2)c1=O (some centres unmarked) [Compound 188]	5000 to 30000
CCC(C)n1ncn(-c2ccc(N3CCN(c4ccc(OC[C@@H]5CO[C@](Cc6ccnnc6)(c6cc(Cl)cc(Cl)c6)O5)cc4)CC3)cc2)c1=O (some centres unmarked) [Compound 122]	< 500
CCC(C)n1ncn(-c2ccc(N3CCN(c4ccc(OC[C@@H]5CO[C@@](Cn6ccc(=O)cc6)(c6ccc(Cl)cc6Cl)O5)cc4)CC3)cc2)c1=O (some centres unmarked) [Compound 41]	< 500
CCC(C)n1ncn(-c2ccc(N3CCN(c4ccc(OC[C@@H]5CO[C@@](Cn6cccn6)(c6ccccc6C#N)O5)cc4)CC3)cc2)c1=O (some centres unmarked) [Compound 90]	500 to 5000
CCC(C)n1ncn(-c2ccc(N3CCN(c4ccc(OC[C@@H]5CO[C@@](Cn6cccn6)(c6ccc(C(F)(F)F)cc6)O5)cc4)CC3)cc2)c1=O (some centres unmarked) [Compound 93]	< 500
CCC(C)n1ncn(-c2ccc(N3CCN(c4ccc(OC[C@@H]5CO[C@@](Cc6ccnnc6)(c6cccc(Cl)c6)O5)cc4)CC3)cc2)c1=O (some centres unmarked) [Compound 124]	< 500

Compound	EC50 [nM]
CCC(C)n1ncn(-c2ccc(N3CCN(c4ccc(OC[C@@H]5CO[C@](Cc6ccnnc6)(c6ccc(Cl)cc6)O5)cc4)CC3)cc2)c1=O (some centres unmarked) [Compound 103]	500 to 5000
CCC(C)n1ncn(-c2ccc(N3CCN(c4ccc(OC[C@@H]5CO[C@@](Cc6ccnnc6)(c6ccc(C)cc6)O5)cc4)CC3)cc2)c1=O (some centres unmarked) [Compound 138]	< 500
CCC(C)n1ncn(-c2ccc(N3CCN(c4ccc(OC[C@@H]5CO[C@@](Cn6nccn6)(c6cc(Cl)ccc6Br)O5)cc4)CC3)cc2)c1=O (some centres unmarked) [Compound 35]	500 to 5000
CCC(C)n1ncn(-c2ccc(N3CCN(c4ccc(OC[C@@H]5CO[C@@](Cn6nc7ccccc7n6)(c6ccc(C#N)cc6C)O5)cc4)CC3)cc2)c1=O (some centres unmarked) [Compound 50]	500 to 5000
CCC(C)n1ncn(-c2ccc(N3CCN(c4ccc(OC[C@@H]5CO[C@](Cc6ccnnc6)(c6ccc(S(N)(=O)=O)cc6)O5)cc4)CC3)cc2)c1=O (some centres unmarked) [Compound 120]	> 30000
CCC(C)n1ncn(-c2ccc(N3CCN(c4ccc(OC[C@@H]5CO[C@](Cc6ccnnc6)(c6cccc(C#N)c6)O5)cc4)CC3)cc2)c1=O (some centres unmarked) [Compound 110]	5000 to 30000
CCC(C)n1ncn(-c2ccc(N3CCN(c4ccc(OC[C@@H]5CO[C@](Cc6ccnnc6)(c6ccc(C(F)(F)F)cc6)O5)cc4)CC3)cc2)c1=O (some centres unmarked) [Compound 114]	< 500
CCC(C)n1ncn(-c2ccc(N3CCN(c4ccc(OC[C@@H]5CO[C@@](Cn6cccn6)(c6ccc(OC)cc6)O5)cc4)CC3)cc2)c1=O (some centres unmarked) [Compound 87]	< 500
CC(C)Cn1ncn(-c2ccc(N3CCN(c4ccc(OC[C@@H]5CO[C@@](Cn6nccn6)(c6ccccc6)O5)cc4)CC3)cc2)c1=O [Compound 19]	500 to 5000
CCC(C)n1ncn(-c2ccc(N3CCN(c4ccc(OC[C@@H]5CO[C@@](CN6CCOCC6)(c6ccc(Cl)cc6Cl)O5)cc4)CC3)cc2)c1=O (some centres unmarked) [Compound 44]	> 30000
CCC(C)n1ncn(-c2ccc(N3CCN(c4ccc(OC[C@@H]5CO[C@@](CC)(c6ccc(Cl)cc6Cl)O5)cc4)CC3)cc2)c1=O (some centres unmarked) [Compound 40]	500 to 5000
C#CCCCn1ncn(-c2ccc(N3CCN(c4ccc(OC[C@@H]5CO[C@@](Cn6cncn6)(c6ccc(N=[N+]=[N-])cc6)O5)cc4)CC3)cc2)c1=O [Compound 191]	500 to 5000
CCC(C)n1ncn(-c2ccc(N3CCN(c4ccc(OCCCO[C@@H](Cn5nccn5)c5ccccc5)cc4)CC3)cc2)c1=O (some centres unmarked) [Compound 142]	> 30000
CCC(C)n1ncn(-c2ccc(N3CCN(c4ccc(OC[C@H]5CO[C@](Cn6nccn6)(c6ccccc6)O5)cc4)CC3)cc2)c1=O (some centres unmarked) [Compound 181]	< 500
CC[C@H](C)n1ncn(-c2ccc(N3CCN(c4ccc(OC[C@@H]5CO[C@@](Cn6nccn6)(c6ccccc6)O5)cc4)CC3)cc2)c1=O [Compound 180, 4-(4-(4-(4-(((2S,4R)-2-((2H-1,2,3-triazol-2-yl)methyl)-2-phenyl-1,3-dioxolan-4-yl)methoxy)phenyl)piperazin-1-yl)phenyl)-(S)-1-sec-butyl-1H-1,2,4-triazol-5(4H)-one]	< 500
CCC(CC)n1ncn(-c2ccc(N3CCN(c4ccc(OC[C@H]5CO[C@](Cn6cccn6)(c6ccccc6)O5)cc4)CC3)cc2)c1=O [Compound 167]	< 500
CCC(C)n1ncn(-c2ccc(N3CCN(c4ccc(OC[C@@H]5CO[C@@](Cc6ccnnc6)(c6cccc(C(F)(F)F)c6)O5)cc4)CC3)cc2)c1=O (some centres unmarked) [Compound 133]	< 500
CCC(C)n1ncn(-c2ccc(N3CCN(c4ccc(OC[C@@H]5CO[C@@](Cn6cccn6)(c6ccccc6OC)O5)cc4)CC3)cc2)c1=O (some centres unmarked) [Compound 85]	500 to 5000

Same assay, conditions: imaging and western based activity

Compound	EC50 [nM]
cis (±)-4-(4-(4-(4-((4-((2H-1,2,3-triazol-2-yl)methyl)-4-(2,4-difluorophenyl)-1,3-dioxolan-2-yl)methoxy)phenyl)piperazin-1-yl)phenyl)-1-sec-butyl-1H-1,2,4-triazol-5(4H)-one [Compound 199]	< 500
